We go through four molecules from patent US9707272B2, “Method for the treatment of acne by administering IL-1β antibody” (UNIVERSITAT ZURICH, priority 2011, dated 2017).

In assay [1] the test system is IL-1β secretion from human monocytes. Put plainly: IL-1β secretion (ELISA) and maturation (western blot) from human monocytes exposed to P. acnes or inflammasome activators. The conditions noted are these: upLPS-primed human monocytes, P. acnes MOI=100, 6 h; Glibenclamide or KCl 65 mM added one hour prior, FIG. 3f. Format: cell-based. As for the experimental part:
For Western blotting cell culture supernatants were precipitated by addition of 0.25 volumes of trichloroacetic acid (100% w/v), 10 min incubation on ice and centrifugation for 5 min at 14,000 g. Protein pellet was washed twice with ice-cold acetone, centrifuged as described above and dried at 70° C. Cells were lysed with buffer (10 mM Tris pH 7.5, 1% NP-40, 150 mM NaCl, 5 mM EDTA,) containing a protease inhibitor cocktail. Proteins were separated on a NuPAGE gel in accordance with the manufacturer's protocol and transferred to a Hybond-C-Extra membrane by electroblotting. […] Appropriate HRP-conjugated secondary antibodies were used and proteins were detected using ECL reagent. […]
Human monocytes were primed with upLPS and infected with P. acnes (MOI=100) or stimulated with MSU crystals ([…]) in the presence of vehicle (DMSO) or pan-caspase inhibitor (Z-VAD-fmk, […]) for 24 h (FIG. 2a). IL-1β secretion was determined by ELISA and mature IL-1β release (IL-1β p17) by western blot. […]
THP1 cells were treated with vehicle (DMSO) or cytochalasin D (Cyt. D, […]) for one hour and then incubated with CFSE-labeled P. acnes (MOI=100) for 4 h or left untreated (FIG. 3a). Bacteria uptake was analyzed by FACS. […] IL-1β (FIG. 3f) and TNFα (FIG. 3g) release were determined after 6 h by ELISA. […]

A further assay concerns C57BL/6 WT mice. Put plainly: Intradermal P. acnes ear inflammation model in WT mice. Format: in vivo, mouse. The conditions noted are these: for ear swelling: intradermal P. acnes 20×10^6 CFU, 24 h, i.p. IL-1Ra 150 mg/kg three times at 8 h intervals or single i.p. anti-IL1β antibody, FIG. 4a; for subcutaneous neutrophil infiltration: intradermal P. acnes, histology (HE), i.p. IL-1Ra or anti-IL1β antibody, FIG. 4d. As for the experimental part: (§1) C57BL/6 mice received three intraperitoneal (i.p.) injections of IL-1 receptor antagonist (IL-1Ra, Anakinra, 150 mg/kg) or PBS at 8 h intervals. One hour after first i.p. injection of IL-1Ra mice received intradermal injections of P. acnes or PBS. TNFα inhibitor (Etanercept) and anti-IL-1β antibody treated mice (Canakinumab, […]) C57BL/6 mice received i.p. injection 24 h before an intradermal injection of P. acnes or PBS. To make bone marrow chimeras indicated mice were lethally irradiated (10 Gy) and subsequently transplanted with indicated bone marrow. After bone marrow reconstitution (8 weeks later) mice were interdermally injected with P. acnes or PBS.
(§2) The ear thickness was measured using a micro caliper before and 24 h after bacterial injection. The percentage of ear thickness was calculated by comparing the ear thickness before and 24 hours after injection.
(§3) WT mice were injected intradermally with P. acnes (20×10^6 CFU/[…] in PBS, left ear) or with an equal amount of PBS (right ear) (FIG. 4a). Mice were treated with vehicle (n=11) or three intraperitoneal injections of IL-1Ra (Anakinra, 150 mg/kg, n=13) at the 8 h intervals or a single i.p. injection of anti-IL1β antibody ([…]) one hour prior to P. acnes or PBS challenge. The ear swelling as measured 24 hrs later is presented. ASC^−/− mice were challenged the same way with P. acnes. The resulting ear swelling (FIG. 4b) and pro- and mature-IL1β in ear extracts (FIG. 4c) are presented. […] WT mice reconstituted with WT (n=8-10), ASC^−/− (n=12) or NLRP3^−/− (n=8) bone marrow were challenged with P. acnes or PBS as described above. The resulting swelling (FIG. 4e) and histology of the infected ear (FIG. 4f) are presented. TLR2^−/− (n=10) were intradermally injected with P. acnes or PBS one hour after treatment with IL-1Ra (n=10) or anti-IL-1β antibody (n=9) as described above. The resulting ear swelling (FIG. 4g) and histology (FIG. 4i) are presented.

The test system of another assay is TLR2−/− mice. The assay can be described thus: Intradermal P. acnes ear inflammation model in TLR2-deficient mice. Format: in vivo, mouse. The conditions noted are these: treatment with IL-1Ra or anti-IL-1β antibody; for development of cutaneous inflammation: histology, FIG. 4i; for development of ear swelling: FIG. 4g. The procedure:
as §1, §2, §3

As for `[Cl-].[K+]` [KCl], in assay [1], the IL-1β release entry is “significant reduction”.

Anakinra [IL-1Ra]: in the assay with C57BL/6 WT mice, the ear swelling result is “significant reduction” and the subcutaneous neutrophil infiltration entry is given as “significant reduction”. The subcutaneous neutrophil infiltration entry in the assay on C57BL/6 WT mice (listed as IL-1 receptor antagonist) is “selective blockade”. Besides, in the assay with TLR2−/− mice, the “development of cutaneous inflammation” value was “blocked” and the “development of ear swelling” value was “blocked”.

On to `COc1ccc(Cl)cc1C(=O)NCCc1ccc(S(=O)(=O)NC(=O)NC2CCCCC2)cc1` [glibenclamide, 5-Chloro-N-[2-[4-(cyclohexylcarbamoylsulfamoyl)phenyl]ethyl]-2-methoxy-benzamide], for which, in assay [1], the IL-1β release entry is “significant reduction”.

B1: Canakinumab (antibody, V domains shown)
VH: QVQLVESGGGVVQPGRSLRLSCAASGFTFSVYGMNWVRQAPGKGLEWVAIIWYDGDNQYYADSVKGRFTISRDNSKNTLYLQMNGLRAEDTAVYYCARDLRTGPFDYWGQGTLVTVSS
VL: EIVLTQSPDFQSVTPKEKVTITCRASQSIGSSLHWYQQKPDQSPKLLIKYASQSFSGVPSRFSGSGSGTDFTLTINSLEAEDAAAYYCHQSSSLPFTFGPGTKVDIK
modifications: antibody fragment
notes: Id; No. 1 and 2
Regarding B1, in the assay with C57BL/6 WT mice, the ear swelling entry is listed as “significant reduction” and the subcutaneous neutrophil infiltration entry was “significant reduction”. Further, in the assay on C57BL/6 WT mice (listed as monoclonal anti-IL1β antibody), the subcutaneous neutrophil infiltration entry is on record as “selective blockade”. In the assay on TLR2−/− mice, the “development of cutaneous inflammation” value is given as “blocked” and the “development of ear swelling” value was “blocked”.
